# From patent US20240415845A1, “Compositions of Iboga Alkaloids and Methods of Treatment” (priority 2022, published 2024)
# Test system: special operations veterans with combat and/or blast exposure
# Experiment: Structural MRI (T1w, FreeSurfer): brain volume and cortical thickness
# Assay type: in vivo, human
# Protocol: Structural imaging of the brain was also conducted on some of the subjects of Example 1. Gray matter constitutes about 40% of the brain and white matter constitutes about 60% of the brain. Gray matter contains most of the brain's neuronal cell nodes, it is fully developed once a person reaches their 20's and interprets sensor information from various parts of the body. White matter is made up of bundles which connect various gray matter areas, it develops throughout the 20's and peaks in middle age. Typical metrics analyzed in anatomical (T1-weighted, “T1w”) imaging include volume and/or shape of nuclei (e.g. caudate), volume and/or shape of ventricles of the brain, and cortical thickness (mm). These metrics can be used to study normal and abnormal neuroanatomy and are primarily used to quantify gray matter. A tool called FreeSurfer was applied to images for a T1w structural analysis (volume, cortical thickness) to adjust for bias, remove non-brain matter, segments by tissue, parcels the brain into standardized regions, and provides measurements of those regions. FreeSurfer measurements of whole brain volume, volume by tissue (gray, white, CSF), estimated intracranial volume (ICV), subcortical gray matter volume, cortical volume by region were done. […] In particular, analysis was done to determine if there was any loss in gray matter volume or cortical thickness, whether there was a loss in white matter volume or an increase in presence of white matter […]. Results are summarized in Table 3 and shown in FIGS. 17A-17B, and FIGS. 18A-18B.
# The fMRI images were also inspected to determine the difference in volume in regional areas of the brain from baseline to one month after treatment. FIG. 18A is a bar graph showing the effect size of a change in volume in 47 brain regions indicated along the x-axis. […] The fMRI images were also inspected for whole brain thickness at baseline and one month after treatment. […] FIG. 18B is a bar graph showing the effect size of a cortical thickness change for the brain regions indicated along the x-axis, from baseline to one month after treatment. […] The right and left parahippocampal gyrus are involved in visuospatial processing, including scene perception, navigation, and emotional contextualization. The left orbitofrontal gyrus is involved in impulse control and reward valuation. The left insular cortex is associated with both the affective-perceptual and cognitive-evaluative forms of empathy, as well as awareness of hunger, pain and fatigue. The left entorhinal cortex is a widespread network hub for memory, navigation, and perception of time.
# [1] = baseline to one month after treatment
structure (smiles),measurement,setting,value
"CCC1CC2CC3c4[nH]c5ccc(OC)cc5c4CCN(C2)C13 (stereo not shown) [ibogaine, Ibogaine]",regional volume change in cerebral white matter (left) and left ventral DC,[1],Increases in volume
same,regional volume change in posterior corpus callosum and left choroid plexus,[1],Decreases in volume
same,"White matter hypointensities (corrected for cerebral white matter), change","baseline vs one month post treatment, 17 subjects, two-tailed p = 0.0789",Two-tailed: no significant differences
same,"Subcortical Gray Matter volume, change","baseline vs one month post treatment, 17 subjects, two-tailed p = 0.0949",Two-tailed: no significant differences
same,"Total Gray Matter volume, change","baseline vs one month post treatment, 17 subjects, two-tailed p = 0.4755",Two-tailed: no significant differences
same,"Cortical Gray Matter volume, change","baseline vs one month post treatment, 17 subjects, two-tailed p = 0.4847",Two-tailed: no significant differences
same,damage to the brain by inspection of brain volume and thickness,one month after treatment,no apparent damage to the brain
same,"right hemisphere mean cortical thickness, change",one month after treatment vs baseline,no significant difference
same,"Left hemisphere mean cortical thickness, change","one month after treatment vs baseline, two-tailed p=0.7146",no significant difference
same,"cortical thickness change in left entorhinal cortex, left-lateral-orbitofrontal pole, parahippocampal gyrus (bilaterally), left insular cortex, right-pars triangularis",one-month after treatment,Increases in cortical thickness
